Among the test systems are UACC-257; COLO 205; ACHN; CCRF-CEM; HCT-15; TK-10; OVCAR-5; Malme-3M; OVCAR-4; A549; SF-268; NCI/ADR-RES; A498; SR; CAKI-1; IGROV-1; RXF 393; OVCAR-8; PC-3; HCC 2998.
Assay in all cases: NCI tumour cell line growth inhibition, 48 h

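Where inhibition never reached the appropriate level, the endpoint shown equals the highest concentration tested. Otherwise, values were interpolated linearly from a five-concentration, 48-hour dose response in 96-well plates. GI50 is the concentration that inhibits growth by half.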 The source made the active and inactive calls. Cut-off read from the data, not from the text of the source: active = GI50 up to about 1.1 µM and inactive = higher. A value given as a limit tells only on which side of the number the result lay.

As for `c1ccc(CCCNc2nnnc3ccccc23)cc1`, the GI50 in the assay with UACC-257 is 67.6 µM (inactive); with COLO 205 it was 62.5 µM (inactive); with ACHN, 85.1 µM (inactive); in the assay on CCRF-CEM, 73.8 µM (inactive); with HCT-15, over 100 µM; with TK-10, > 100 µM (inactive). Moreover, the GI50 in the assay with OVCAR-5 is > 100 µM (inactive); with Malme-3M, 58.2 µM (inactive); in the assay on OVCAR-4, 38.9 µM (inactive); in the assay with A549, 63 µM (inactive); with SF-268, > 100 µM (inactive); in the assay on NCI/ADR-RES, 39.4 µM (inactive). The GI50 in the assay with A498 was > 100 µM (inactive); in the assay on SR it was 92.9 µM (inactive); in the assay on CAKI-1, 46.7 µM (inactive); in the assay on IGROV-1 it was > 100 µM (inactive); with RXF 393, 43.4 µM (inactive); in the assay on OVCAR-8, > 100 µM (inactive). Further, the GI50 with PC-3 was > 100 µM (inactive).

For the molecule `O=C(O)Cn1cnc2c(O)nc(Nc3ccccc3)nc21`, the GI50 in the assay on UACC-257 was > 100 µM (inactive); in the assay on COLO 205, > 100 µM (inactive); with ACHN, > 100 µM (inactive); in the assay on CCRF-CEM, > 100 µM (inactive); with HCT-15 it was over 100 µM; in the assay with TK-10, > 100 µM (inactive). For the same molecule, the GI50 in the assay with OVCAR-5, in the assay with Malme-3M, in the assay with OVCAR-4, with HCC 2998, with A549 and in the assay on SF-268 was > 100 µM (inactive) each time. In addition, the GI50 with NCI/ADR-RES, with A498, in the assay on SR, in the assay on CAKI-1, with IGROV-1 and in the assay on OVCAR-8 was > 100 µM (inactive) throughout. Besides, the GI50 in the assay with PC-3 is > 100 µM (inactive).

Turning to `CCCCNC(=S)Nc1nc(C(=O)NNC(=S)NCC)cs1`, the GI50 in the assay on UACC-257 was > 100 µM (inactive); with COLO 205 it was 62.5 µM (inactive); with ACHN, 31.6 µM (inactive); with CCRF-CEM, 44 µM (inactive); with HCT-15, 23 µM; in the assay on TK-10, > 100 µM (inactive). The GI50 was > 100 µM (inactive) with OVCAR-5; > 100 µM (inactive) in the assay with Malme-3M; 73.1 µM (inactive) in the assay with OVCAR-4; > 100 µM (inactive) in the assay on HCC 2998; > 100 µM (inactive) in the assay on A549; > 100 µM (inactive) in the assay on SF-268. Further, the GI50 is 26.5 µM (inactive) with NCI/ADR-RES; > 100 µM (inactive) with A498; 6.73 µM (inactive) with SR; 63.5 µM (inactive) in the assay on CAKI-1; 78.5 µM (inactive) with IGROV-1; > 100 µM (inactive) in the assay with OVCAR-8. The GI50 in the assay with PC-3 is > 100 µM (inactive).

`COc1ccc(-n2cnc3c(NC(Cc4ccccc4)C(=O)O)ncnc32)cc1` (stereo not given): the GI50 is > 100 µM (inactive) with UACC-257; > 100 µM (inactive) with COLO 205; > 100 µM (inactive) with ACHN; > 100 µM (inactive) with CCRF-CEM; over 100 µM in the assay with HCT-15; > 100 µM (inactive) with TK-10. For the same molecule, the GI50 with OVCAR-5, in the assay on OVCAR-4, in the assay on HCC 2998, with A549, in the assay with SF-268 and in the assay on NCI/ADR-RES was > 100 µM (inactive) throughout. In addition, the GI50 in the assay with A498, with SR, in the assay with CAKI-1, in the assay on IGROV-1, in the assay on OVCAR-8 and with PC-3 was > 100 µM (inactive) throughout.

For the molecule `COC1(C(C)(C)C)C=C(C(C)(C)C)P(=O)(O)O1` (stereo not given), the GI50 was > 100 µM (inactive) with UACC-257; > 100 µM (inactive) in the assay on COLO 205; > 100 µM (inactive) in the assay with ACHN; over 100 µM in the assay on HCT-15; > 100 µM (inactive) with TK-10; > 100 µM (inactive) in the assay with OVCAR-5. In addition, the GI50 is > 100 µM (inactive) in the assay on Malme-3M; > 100 µM (inactive) with OVCAR-4; 15.7 µM (inactive) in the assay on HCC 2998; > 100 µM (inactive) in the assay on A549; > 100 µM (inactive) in the assay on SF-268; > 100 µM (inactive) in the assay on NCI/ADR-RES. The GI50 in the assay on A498, with SR, with CAKI-1, in the assay on IGROV-1, with OVCAR-8 and in the assay with PC-3 was > 100 µM (inactive) throughout.

On to `Cc1ccc(S(=O)(=O)N2CC2CCCCC=O)cc1` (stereo not given), for which the GI50 was > 100 µM (inactive) in the assay with UACC-257; > 100 µM (inactive) in the assay with COLO 205; 31.3 µM (inactive) with ACHN; 21.6 µM (inactive) with CCRF-CEM; over 100 µM in the assay on HCT-15; > 100 µM (inactive) in the assay on TK-10. Also, the GI50 in the assay on OVCAR-5, with Malme-3M, in the assay on OVCAR-4, with A549, in the assay with SF-268 and with NCI/ADR-RES was > 100 µM (inactive) in each case. The GI50 with A498 is > 100 µM (inactive); in the assay with SR, 17.1 µM (inactive); in the assay on CAKI-1, > 100 µM (inactive); in the assay with IGROV-1 it was 80.9 µM (inactive); in the assay with RXF 393 it was > 100 µM (inactive); in the assay with OVCAR-8, > 100 µM (inactive). Also, the GI50 with PC-3 is > 100 µM (inactive).

For `CN(C)CCNC(=O)c1nc([N+](=O)[O-])cn1C`, the GI50 was > 100 µM (inactive) with UACC-257; > 100 µM (inactive) in the assay with COLO 205; > 100 µM (inactive) with ACHN; > 100 µM (inactive) with CCRF-CEM; over 100 µM in the assay with HCT-15; > 100 µM (inactive) in the assay on TK-10. The GI50 in the assay with OVCAR-5, with Malme-3M, in the assay on OVCAR-4, in the assay with HCC 2998, in the assay on A549 and in the assay with SF-268 was > 100 µM (inactive) throughout. Besides, the GI50 in the assay on NCI/ADR-RES, in the assay on A498, in the assay on SR, in the assay on CAKI-1, with IGROV-1 and with OVCAR-8 was > 100 µM (inactive) in each case. The GI50 in the assay on PC-3 was > 100 µM (inactive).

For the molecule `NNS(=O)(=O)c1cc(C(=O)O)cc(C(=O)O)c1`, the GI50 was > 100 µM (inactive) with UACC-257; > 100 µM (inactive) in the assay on COLO 205; > 100 µM (inactive) in the assay with ACHN; 28.5 µM (inactive) in the assay on CCRF-CEM; over 100 µM in the assay on HCT-15; > 100 µM (inactive) with TK-10. For the same molecule, the GI50 in the assay on OVCAR-5, in the assay with Malme-3M, in the assay with OVCAR-4, with A549, with SF-268 and with NCI/ADR-RES was > 100 µM (inactive) throughout. Besides, the GI50 with A498, in the assay with SR, in the assay on CAKI-1, with IGROV-1, in the assay with RXF 393 and with OVCAR-8 was > 100 µM (inactive) each time. Besides, the GI50 in the assay with PC-3 is > 100 µM (inactive).

These data come from ChEMBL document CHEMBL1201862, “PubChem BioAssay data set” (2004).
